Source: patent publication US8440652B2, “MST1 kinase inhibitors and methods of their use” (Lexicon Pharmaceuticals, Inc., priority 2011, dated 2013)
Where two headings read alike, the source gives them in different places.

Target: T1, MST1 (Homo sapiens, UniProt Q13043)
T1 sequence (Q13043 1-487): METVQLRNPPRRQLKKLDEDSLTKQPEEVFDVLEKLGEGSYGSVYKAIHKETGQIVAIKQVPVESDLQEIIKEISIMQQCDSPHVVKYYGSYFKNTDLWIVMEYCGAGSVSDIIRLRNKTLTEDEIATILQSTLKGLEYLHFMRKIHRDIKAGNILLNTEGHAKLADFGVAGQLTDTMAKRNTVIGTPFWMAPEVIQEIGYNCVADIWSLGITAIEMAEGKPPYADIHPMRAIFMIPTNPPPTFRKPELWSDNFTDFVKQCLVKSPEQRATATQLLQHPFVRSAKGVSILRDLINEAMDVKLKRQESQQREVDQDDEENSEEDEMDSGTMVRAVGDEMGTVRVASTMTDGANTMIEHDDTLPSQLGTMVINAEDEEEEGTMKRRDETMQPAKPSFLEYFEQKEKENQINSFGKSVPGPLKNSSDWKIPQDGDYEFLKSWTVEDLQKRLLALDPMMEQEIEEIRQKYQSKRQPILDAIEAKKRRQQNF
Test: In vitro measurement of MST1 inhibition (Z′-Lyte kinase assay)
Format: biochemical

[1] = 1 μM ATP, read-out: IC50 (μM) 1 μM ATP
[2] = 50 μM ATP, read-out: IC50 (μM) 50 μM ATP

SMILES | IC50 [1] | IC50 [2]
CCNS(=O)(=O)c1ccc(-c2cnc(N)c(-c3ccc4c(O)ncnc4c3)c2)cc1 [4-(6-amino-5-(4-hydroxyquinazolin-7-yl)pyridin-3-yl)-N-ethylbenzenesulfonamide] | < 0.05 µM | < 0.01 µM
CN(C1CC1)S(=O)(=O)c1ccc(-c2cnc(N)c(-c3ccc4c(c3)NCCNC4=O)c2)cc1 [4-(6-amino-5-(5-oxo-2,3,4,5-tetrahydro-1H-benzo[e][1,4]diazepin-8-yl)pyridin-3-yl)-N-cyclopropyl-N-methylbenzenesulfonamide] | < 0.01 µM | < 0.01 µM
CN(C1CC1)S(=O)(=O)c1ccc(-c2cnc(N)c(-c3ccc4c(c3)OCCNC4=O)c2)cc1 [4-(6-amino-5-(5-oxo-2,3,4,5-tetrahydrobenzo[f][1,4]oxazepin-8-yl)pyridin-3-yl)-N-cyclopropyl-N-methylbenzenesulfonamide] | < 0.01 µM | < 0.01 µM
Nc1ncc(-c2ccc(S(=O)(=O)NC3CC3)cc2)cc1-c1ccc2c(c1)OCCNC2=O [4-(6-amino-5-(5-oxo-2,3,4,5-tetrahydrobenzo[f][1,4]oxazepin-8-yl)pyridin-3-yl)-N-cyclopropylbenzenesulfonamide] | < 0.01 µM | < 0.01 µM
CCN(C)S(=O)(=O)c1ccc(-c2cnc(N)c(-c3cc4c(s3)C(=O)NCC4)c2)cc1 [4-(6-amino-5-(7-oxo-4,5,6,7-tetrahydrothieno[2,3-c]pyridin-2-yl)pyridin-3-yl)-N-ethyl-N-methylbenzenesulfonamide] | < 0.05 µM | < 0.01 µM
CN(C1CC1)S(=O)(=O)c1ccc(-c2cnc(N)c(-c3cc4c(cn3)C(=O)NCC4)c2)cc1 [4-(6-amino-5-(8-oxo-5,6,7,8-tetrahydro-2,7-naphthyridin-3-yl)pyridin-3-yl)-N-cyclopropyl-N-methylbenzenesulfonamide] | < 0.01 µM | < 0.01 µM
N#Cc1ccc(-c2cnc(N)c(-c3cc4c(cn3)C(=O)NCC4)c2)cc1 [4-(6-amino-5-(8-oxo-5,6,7,8-tetrahydro-2,7-naphthyridin-3-yl)pyridin-3-yl)benzonitrile] | < 0.05 µM | < 0.01 µM
CNC(=O)N1CCc2cc(-c3nc(-c4ccc(S(=O)(=O)N(C)C5CC5)cc4)cnc3N)ccc21 [5-(3-amino-6-(4-(N-cyclopropyl-N-methylsulfamoyl)phenyl)pyrazin-2-yl)-N-methylindoline-1-carboxamide] | < 0.05 µM | < 0.01 µM
CC1(C#N)CCc2cc(-c3cnc(N)c(-c4ccc5c(c4)CCNC5=O)n3)ccc21 (stereo not drawn) [5-(5-amino-6-(1-oxo-1,2,3,4-tetrahydroisoquinolin-6-yl)pyrazin-2-yl)-1-methyl-2,3-dihydro-1H-indene-1-carbonitrile] | < 0.05 µM | < 0.01 µM
CN(C1CC1)S(=O)(=O)c1ccc(-c2cnc(N)c(-c3ccc4c(c3)CCNC4=O)n2)cn1 [5-(5-amino-6-(1-oxo-1,2,3,4-tetrahydroisoquinolin-6-yl)pyrazin-2-yl)-N-cyclopropyl-N-methylpyridine-2-sulfonamide] | < 0.05 µM | < 0.01 µM
CC1(C#N)CCc2cc(-c3cnc(N)c(-c4ccc5c(c4)CCNC5=O)c3)ccc21 (stereo not drawn) [5-(6-amino-5-(1-oxo-1,2,3,4-tetrahydroisoquinolin-6-yl)pyridin-3-yl)-1-methyl-2,3-dihydro-1H-indene-1-carbonitrile] | < 0.15 µM | < 0.01 µM
Nc1ncc(-c2ccc(C(=O)NCC(F)(F)F)s2)cc1-c1ccc2c(c1)CCNC2=O [5-(6-amino-5-(1-oxo-1,2,3,4-tetrahydroisoquinolin-6-yl)pyridin-3-yl)-N-(2,2,2-trifluoroethyl)thiophene-2-carboxamide] | < 0.15 µM | < 0.05 µM
CCN(C)S(=O)(=O)c1ccc(-c2cnc(N)c(-c3ccc4c(c3)CCNC4=O)c2)s1 [5-(6-amino-5-(1-oxo-1,2,3,4-tetrahydroisoquinolin-6-yl)pyridin-3-yl)-N-ethyl-N-methylthiophene-2-sulfonamide] | < 0.05 µM | < 0.01 µM
Nc1ncc(-c2ccc3c(c2)CNS3(=O)=O)cc1-c1ccc2c(c1)CCNC2=O [6-(2-amino-5-(1,1-dioxido-2,3-dihydrobenzo[d]isothiazol-5-yl)pyridin-3-yl)-3,4-dihydroisoquinolin-1(2H)-one] | < 0.05 µM | < 0.01 µM
CN(C)c1nc(-c2cnc(N)c(-c3ccc4c(c3)CCNC4=O)c2)cs1 [6-(2-amino-5-(2-(dimethylamino)thiazol-4-yl)pyridin-3-yl)-3,4-dihydroisoquinolin-1(2H)-one] | – | < 0.05 µM
Nc1ncc(-c2ccc3c(c2)CC(=O)N3)cc1-c1ccc2c(c1)CCNC2=O [6-(2-amino-5-(2-oxoindolin-5-yl)pyridin-3-yl)-3,4-dihydroisoquinolin-1(2H)-one] | < 0.05 µM | < 0.05 µM
CN(C)C(C)(C)c1ccc(-c2cnc(N)c(-c3ccc4c(c3)CCNC4=O)c2)cc1 [6-(2-amino-5-(4-(2-(dimethylamino)propan-2-yl)phenyl)pyridin-3-yl)-3,4-dihydroisoquinolin-1(2H)-one] | < 0.05 µM | < 0.01 µM
CC(C)(c1ccc(-c2cnc(N)c(-c3ccc4c(c3)CCNC4=O)c2)cc1)N1CCOCC1 [6-(2-amino-5-(4-(2-morpholinopropan-2-yl)phenyl)pyridin-3-yl)-3,4-dihydroisoquinolin-1(2H)-one] | < 0.05 µM | < 0.01 µM
CN(Cc1ccc(-c2cnc(N)c(-c3ccc4c(c3)CCNC4=O)c2)cc1)C1CC1 [6-(2-amino-5-(4-((cyclopropyl(methyl)amino)methyl)phenyl)pyridin-3-yl)-3,4-dihydroisoquinolin-1(2H)-one] | < 0.05 µM | < 0.01 µM
CCS(=O)(=O)c1ccc(-c2cnc(N)c(-c3ccc4c(c3)CCNC4=O)c2)cc1 [6-(2-amino-5-(4-(ethylsulfonyl)phenyl)pyridin-3-yl)-3,4-dihydroisoquinolin-1(2H)-one] | < 0.05 µM | < 0.05 µM
Nc1ncc(-c2ccc(F)cc2)cc1-c1cc2c(cn1)C(=O)NCC2 [6-(2-amino-5-(4-fluorophenyl)pyridin-3-yl)-3,4-dihydro-2,7-naphthyridin-1(2H)-one] | < 0.05 µM | < 0.05 µM
Nc1ncc(-c2ccc(F)cc2)cc1-c1ccc2c(c1)CCNC2=O [6-(2-amino-5-(4-fluorophenyl)pyridin-3-yl)-3,4-dihydroisoquinolin-1(2H)-one] | < 0.15 µM | < 0.05 µM
Cc1ccc(-c2cnc(N)c(-c3ccc4c(c3)CCNC4=O)c2)s1 [6-(2-amino-5-(5-methylthiophen-2-yl)pyridin-3-yl)-3,4-dihydroisoquinolin-1(2H)-one] | < 0.05 µM | < 0.01 µM
Cn1cc(-c2cnc(N)c(-c3ccc4c(c3)CCNC4=O)n2)cn1 [6-(3-amino-6-(1-methyl-1H-pyrazol-4-yl)pyrazin-2-yl)-3,4-dihydroisoquinolin-1(2H)-one] | < 0.15 µM | < 0.05 µM
CNC1(c2ccc(-c3cnc(N)c(-c4ccc5c(c4)CCNC5=O)n3)cc2)CC1 [6-(3-amino-6-(4-(1-(methylamino)cyclopropyl)phenyl)pyrazin-2-yl)-3,4-dihydroisoquinolin-1(2H)-one] | < 0.01 µM | < 0.01 µM
CC(Oc1ccc(-c2cnc(N)c(-c3ccc4c(c3)CCNC4=O)n2)cc1)C1CC1 (stereo not drawn) [6-(3-amino-6-(4-(1-cyclopropylethoxy)phenyl)pyrazin-2-yl)-3,4-dihydroisoquinolin-1(2H)-one] | < 0.05 µM | < 0.01 µM
